The assay addresses T1, PSII reaction centers of thylakoid extract (Spinacia oleracea, UniProt P69560).
T1 construct: both lyophilized thylakoid extracts were resuspended in: Tris-HCl 50 mM pH 7.5; sorbitol 330 mM; from tissue; host or cells: plant thylakoid membrane extract (lyophilized, rehydrated)
The assay is described as follows: Inhibition of Fv/Fm (photosynthetic efficiency) of thylakoid extract by atrazine. The assay is classed as biochemical, Spinacia oleracea L.

pIC50: −log10 of the molar value. Read-outs that look alike come from different tables or passages of the source.

Method: Each re-suspended extract was dark-incubated for 15 min with the appropriate atrazine concentration for 15 minutes.
Absorbed light was measured with a FMS1 Hansatech Instrument (Schreiber et al., 1986; lab based modulated fluorescence); under excitation light beam at 470 nm. In dark adapted condition, the following fluorescence parameters can be obtained or calculated: • Fo: minimal fluorescence when PSII reaction centers are in the fully oxidized state. It is obtained at the beginning of fluorescence measurement when only the modulating beam is illuminated. • Fm: obtained with an intense saturating pulse (2 000 μmol photons m^2/s) allowing maxi mum PSII fluorescence emission. • Fv: variable fluorescence is obtained by the difference between Fm and Fo and corresponds to maximum capacity for photochemical energy quenching.
Fv/Fm: this ratio is proportional to quantum efficiency of PSII reaction centers (Butker 1977, 1978) and represents a correlation between the chlorophyll fluorescence and the photochemical reactions (for instance oxygen evolution).
Any molecule affecting the photosystems will modify either Fo or Fm which modification necessarily disrupts (increases or decreases) the photosynthetic efficiency. […]

For the compound `CCNc1nc(Cl)nc(NC(C)C)n1` [atrazine], the pIC50 reads like this: (IC50 (atrazine concentration inhibiting 50% of the efficiency parameter), extract after 7 days at 20° C., 5 μg/mL chlorophyll, 15 min dark incubation) 6.94; (several batches of thylakoid extract, 95% confidence, FIG. 4, read-out: IC50 of an accepted lot (within 2σ of the mean IC50)) 6.66 to 7.12.

For the origin of these results see patent US20180362921A1, “EXTRACTION AND PROCESS FOR ACTIVE THYLAKOID MEMBRANES” (GROUPE SANTÉ DEVONIAN INC., priority 2015, published 2018).
